Reference: patent US20110190389A1, “OXYLIPINS FROM LONG CHAIN POLYUNSATURATED FATTY ACIDS AND METHODS OF MAKING AND USING THE SAME” (priority 2007, published 2011)

Assays:
[1] = test system: total cell migration into air pouch exudates; experiment: Mouse dorsal air pouch model: total cell migration into exudates; type: in vivo, C57/B16 mice; conditions: 100 ng docosanoid intra-pouch; for total number of cells in the pouch: 100 ng TNFα, 4 hours
Source text: (§1) Pure 17R-hydroxy DHA (17R-HDHA) was purchased from Caymen Chemicals (Ann Arbor, Mich.). Docosanoids 17-hydroxy-DPAn-6 (17-HDPAn-6) and 10,17-dihydroxyDPAn-6 (10,17-HDPAn-6) were synthesized biogenically from DPAn-6 (NuChek Prep, Elysian, Minn.) using soybean 15-lipoxygenase (Sigma-Aldrich) and purified by HPLC as described in Example 2. Organic solvents were evaporated and the compounds were re-dissolved in phosphate buffered saline (PBS), filter sterilized and concentrations were adjusted to 1000 ng/ml using molar extinction coefficients of 28,000 and 40,000 M^−1 cm^−1 for the mono- and dihydroxy docosanoids, respectively. Female C57/B16 mice (n=10 mice per group) were injected with sterile air subcutaneously in the back to initiate dorsal air pouches. Six days later, 0.9 ml sterile PBS followed by 100 ng docosanoid in 0.1 ml PBS or PBS alone were administered by intra-pouch injection. This injection was followed within 5 min by intra-pouch injection of 100 ng of mouse recombinant TNFα (Peprotech, Inc, NJ, USA) in 0.1 ml PBS. Control animals received no TNFα. As a positive control, 2 mg/kg indomethacin (Calbiochem, San Diego, Calif.) was administered intraperitoneally 30 min prior to administration of TNFα. Four hours after TNFα administration, air pouch exudates were removed and cells were stained with Turk's solution and counted. Exudates were frozen for later cytokine analyses using commercial ELISA kits. Bars represent group (n=10) means (±stdev). Groups were compared using Student's t test, with p values indicated.

[2] = test system: IL-1β; experiment: Mouse dorsal air pouch model: IL-1β in exudates; type: in vivo, C57/B16 mice; conditions: 100 ng docosanoid intra-pouch; for secretion of IL-1β in air pouch exudates: 100 ng TNFα, 4 hours
Source text: as §1

[3] = test system: macrophage chemotactic protein-1 (MCP-1); experiment: Mouse dorsal air pouch model: MCP-1 in exudates; type: in vivo, C57/B16 mice; conditions: 100 ng docosanoid intra-pouch; for secretion of MCP-1 in air pouch exudates: 100 ng TNFα, 4 hours; for inhibition of MCP-1 secretion versus indomethacin: indomethacin 2 mg/kg i.p.
Source text: as §1

[4] = test system: human T lymphocytes; experiment: TNFα secretion by human T lymphocytes stimulated with anti-CD3/anti-CD28 antibodies; type: cell-based; conditions: 6 hrs pretreatment, 41 hrs on anti-CD3/anti-CD28; difference p=0.037 at 10 nM
Protocol: FIG. 22A: Effect of Docosanoids on TNFα Secretion by Human T Lymphocytes. The assay was performed essentially as described in Ariel et al, 2005. Briefly, human peripheral blood mononuclear cells were isolated from venous blood by Ficoll-Paque™ Plus (Amersham biosciences) gradient. T lymphocytes were isolated using a human T cell enrichment column (R&D Systems) per manufacturer's instructions. Purified T cells were treated with 10,17-dihydroxy DPAn-6 or 10,17-dihydroxy DHA or vehicle (0.05% ethanol) in RPMI-1640 media containing 10% heat inactivated fetal bovine serum for 6 hrs at 37° C. Lymphocytes (200,000 cells in 200 μl media per well) were then transferred to 96-well plates coated with both anti-CD3 antibody and anti-CD28 antibody (100 μl of 2 μg/ml of each antibody overnight to coat wells) and incubated for 41 hrs. TNFα concentrations were determined in cell supernatants by ELISA (R&D Systems). Group means±stdev (n=4) were compared by Student's t test. *p<0.05 and **p<0.01 compared to control; # indicates statistical difference (p=0.037) between the groups treated with 10,17-dihydroxy DPAn-6 and 10,17-dihydroxy DHA at the 10 nM concentrations.

[5] = test system: hind paw edema; experiment: Carrageenan-induced rat paw edema after feeding LCPUFA diets; type: in vivo, Sprague Dawley rats; conditions: diet 4 weeks, 1% carrageenan, 3 hours post-injection, Day 28
Protocol: Adult, male, Sprague Dawley rats (n=10/treatment group) were fed modified AlN-76 diets formulated to include 1.2% DHA, 1.2% DHA+0.44% DPAn-6, or 1.2% DHA+0.46% arachidonic acid (ARA) for 4 weeks. Carrageenan (1%) was used to induce hind paw edema on Day 14 (left paw) and Day 28 (right paw) of feeding. Edema was measured plethysmographically using water displacement 3 hours post-injection. Similar results were obtained on day 14. *p≦0.05.

[6] = test system: inflammatory cytokine production; experiment: Consumption of LCPUFA oils: inflammatory cytokine and eicosanoid production; type: in vivo; conditions: consumption of the oil; DHA dose approximately three times higher in DHA-alone oil
[7] = target: T1, Soybean 15-lipoxygenase (Glycine max, UniProt P08170); experiment: 15-lipoxygenase reaction with fatty acid substrates (conversion to conjugated diene); type: biochemical; conditions: 100 μM fatty acid, 4 μg/ml enzyme, 0.05 M sodium borate pH 9.0, 0° C, absorbance 238 nm
T1 construct: purchased Sigma-Aldrich
T1 sequence (P08170 1-839): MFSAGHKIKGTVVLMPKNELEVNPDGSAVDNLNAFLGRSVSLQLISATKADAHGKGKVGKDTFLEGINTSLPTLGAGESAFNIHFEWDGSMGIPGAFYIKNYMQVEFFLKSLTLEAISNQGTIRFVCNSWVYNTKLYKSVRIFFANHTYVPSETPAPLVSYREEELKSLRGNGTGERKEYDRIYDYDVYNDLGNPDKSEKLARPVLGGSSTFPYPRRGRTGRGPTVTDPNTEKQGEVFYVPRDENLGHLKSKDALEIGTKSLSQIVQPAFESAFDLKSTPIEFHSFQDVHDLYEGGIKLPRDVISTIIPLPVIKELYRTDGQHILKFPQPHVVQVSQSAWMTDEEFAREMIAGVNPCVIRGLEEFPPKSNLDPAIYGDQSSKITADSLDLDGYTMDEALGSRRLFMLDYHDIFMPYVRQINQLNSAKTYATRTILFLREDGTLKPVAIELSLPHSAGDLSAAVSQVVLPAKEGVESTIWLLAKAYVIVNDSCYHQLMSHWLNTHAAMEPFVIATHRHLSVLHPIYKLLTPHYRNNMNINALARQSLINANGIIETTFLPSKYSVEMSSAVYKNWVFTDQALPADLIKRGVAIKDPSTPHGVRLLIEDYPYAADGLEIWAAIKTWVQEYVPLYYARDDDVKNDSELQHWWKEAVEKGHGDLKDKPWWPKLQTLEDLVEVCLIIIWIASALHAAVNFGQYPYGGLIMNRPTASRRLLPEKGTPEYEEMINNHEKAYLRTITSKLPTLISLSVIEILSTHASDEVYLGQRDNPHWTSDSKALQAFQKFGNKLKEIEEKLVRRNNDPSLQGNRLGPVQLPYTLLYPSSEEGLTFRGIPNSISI
Protocol: Soybean 15-lipoxygenase (Sigma-Aldrich, St. Louis, Mo.) at a final concentration of 4 μg/ml was mixed into 100 μM solutions of DHA, DPAn-6, or DPAn-3 (NuChek Prep, Elysian, Minn.) in 0.05 M sodium borate buffer, pH 9.0, and the reaction mixtures were incubated at 0° C. Appearance of the mono-hydroxy conjugated diene derivatives of the fatty acids was monitored through absorbance at 238 nm. Conjugated diene products were quantified using an extinction coefficient of 28,000 M^−1 cm^−1 (Shimizu et al; Methods in Enzymology, 1990 Vol 187, 296-306). As shown in Example. 1, 100% of the DPAn-6 was efficiently converted to its conjugated diene derivative under these conditions, whereas about 85% of DPAn-3 and 50% of DHA were converted to their respective conjugated diene (mono-hydroxy) derivative by the 15-lipoxygenase. No appreciable accumulation of the dihydroxy derivatives occurred under these reaction conditions.

Row | Molecule | total number of cells in the pouch [1] | secretion of IL-1β in air pouch exudates [2] | secretion of MCP-1 in air pouch exudates [3] | inhibition of MCP-1 secretion versus indomethacin [3] | other results
1 | 10,17-dihydroxy DPAn-6 | significant reductions | significant reductions | significant reductions | larger inhibition of MCP-1 secretion than indomethacin | reduction of IL-1β versus comparators ([2]; indomethacin 2 mg/kg i.p.): significantly larger than with that produced by either the DHA oxylipin derivative or indomethacin; reducing TNFα secretion by T lymphocytes, versus DHA analog [4]: more potent than the DHA analog
2 | CCCCCC(O)/C=C/C=C\C/C=C\C/C=C\C/C=C\CCC(=O)O (centres unmarked) [17-hydroxy DPAn-6] | significant reductions | significant reductions | significant reductions | larger inhibition of MCP-1 secretion than indomethacin | potency in reducing cell infiltration versus comparators ([1]; indomethacin 2 mg/kg i.p.): more potent than both 17R-hydroxy DHA and indomethacin
3 | CCCCC/C=C\C/C=C\C/C=C\C/C=C\CCCC(=O)O [ARA, arachidonic acid] | – | – | – | – | edema volume [5]: reversed the anti-inflammatory activity of DHA
4 | CC/C=C\C/C=C\C/C=C\C/C=C\C/C=C\C/C=C\CCC(=O)O [DHA, docosahexaenoic acid, reference compound] | – | – | – | – | reduction in inflammatory cytokine production [6]: 13-29%
5 | CC/C=C\C/C=C\C/C=C\C/C=C\C/C=C\CCCCCC(=O)O [DPAn-3, docosapentaenoic acid (C22:5n-3)] | – | – | – | – | converted to conjugated diene (mono-hydroxy) derivative by the 15-lipoxygenase [7]: about 85%
